According to patent US20130267476A1, “Pesticidal Active Mixtures Comprising Pyrazole Compounds” (BASF SE, priority 2010, published 2013):
Several values for one entry are separate records, joined by “and”; a condition that tells them apart may be missing. Identical values can stand only once. Like-named read-outs stand apart in the source and are kept apart here.

Tests used:
[1] = tested on: Mediterranean fruitfly (Ceratitis capitata); test: Test 4—Control of Mediterranean Fruitfly (insect diet with eggs); assay type: in vivo; conditions: 5 days
Description: Test 4—Control of Mediterranean Fruitfly
For evaluating control of Mediterranean fruitfly (Ceratitis capitata) the test unit consisted of 96-well-microtiter plates containing an insect diet and 50-80 C. capitata eggs.
The compounds or mixtures were formulated using a solution containing 75% water and 25% DMSO. Different concentrations of formulated compounds or mixtures were sprayed onto the insect diet at 5 μl, using a custom built micro atomizer, at two replications.
(§1) For experimental mixtures in these tests identical volumes of both mixing partners at the desired concentrations respectively, were mixed together.
(§2) After application, microtiter plates were incubated at 28±1° C., 80±5% RH for 5 days. Egg and larval mortality was then visually assessed.

[2] = tested on: vetch aphid (Megoura viciae); test: Test 1—Control of Vetch Aphid (leaf disks, 24-well microtiter plates); assay type: in vivo; conditions: 5 days
Description: Test 1—Control of Vetch Aphid
For evaluating control of vetch aphid (Megoura viciae) through contact or systemic means the test unit consisted of 24-well-microtiter plates containing broad bean leaf disks.
The compounds or mixtures were formulated using a solution containing 75% water and 25% Dimethylsulfoxide (DMSO). Different concentrations of formulated compounds or mixtures were sprayed onto the leaf disks at 2.5 μl, using a custom built micro atomizer, at two replications.
as §1
After application, the leaf disks were air-dried and 5-8 adult aphids placed on the leaf disks inside the microtiter plate wells. The aphids were then allowed to suck on the treated leaf disks and incubated at 23±1° C., 50±5% relative humidity (RH) for 5 days. Aphid mortality and fecundity was then visually assessed.

Septoria tritici = test: Test 9—Activity Against Leaf Blotch on Wheat Caused by Septoria tritici (microtest); assay type: cell-based; conditions: 7 days after inoculation
Excerpt: (§3) The active compounds were formulated separately as a stock solution having a concentration of 10000 ppm in dimethyl sulfoxide.
(§4) The measured parameters were compared to the growth of the active compound-free control variant (100%) and the fungus-free and active compound-free blank value to determine the relative growth in % of the pathogens in the respective active compounds. These percentages were converted into efficacies.
Test 9—Activity Against Leaf Blotch on Wheat Caused by Septoria tritici
(§5) The stock solutions were mixed according to the ratio, pipetted onto a micro titer plate (MTP) and diluted with water to the stated concentrations. A spore suspension of SepCoria triticiin an aqueous biomalt solution was then added. The plates were placed in a water vapor-saturated chamber at a temperature of 18° C. Using an absorption photometer, the MTPs were measured at 405 nm 7 days after the inoculation.

[3] = tested on: green peach aphid (Myzus persicae); test: Test 2—Control of Green Peach Aphid (artificial diet under membrane, systemic); assay type: in vivo; conditions: 3 days
Excerpt: Test 2—Control of Green Peach Aphid
For evaluating control of green peach aphid (Myzus persicae) through systemic means the test unit consisted of 96-well-microtiter plates containing liquid artificial diet under an artificial membrane.
The compounds or mixtures were formulated using a solution containing 75% water and 25% DMSO. Different concentrations of formulated compounds or mixtures were pipetted into the aphid diet, using a custom built pipetter, at two replications.
as §1
After application, 5-8 adult aphids were placed on the artificial membrane inside the microtiter plate wells. The aphids were then allowed to suck on the treated aphid diet and incubated at 23±1° C., 50±5% RH for 3 days. Aphid mortality and fecundity was then visually assessed.

Pyricularia oryzae = assay type: cell-based; conditions: 7 days after inoculation
Alternaria solani = test: Test 8—Activity Against Early Blight on Tomatoes Caused by Alternaria solani (microtest); assay type: cell-based; conditions: 7 days after inoculation
Excerpt: as §3, §4
Test 8—Activity Against Early Blight on Tomatoes Caused by Alternaria solani
as §5, with “Alternaria solani in” for “SepCoria triticiin”

[4] = tested on: tobacco budworm (Heliothis virescens); test: Test 5—Control of Tobacco Budworm (insect diet with eggs); assay type: in vivo; conditions: 5 days
Description: Test 5—Control of Tobacco Budworm
For evaluating control of tobacco budworm (Heliothis virescens) the test unit consisted of 96-well-microtiter plates containing an insect diet and 15-25 H. virescens eggs.
The compounds or mixtures were formulated using a solution containing 75% water and 25% DMSO. Different concentrations of formulated compounds or mixtures were sprayed onto the insect diet at 10 μl, using a custom built micro atomizer, at two replications.
as §1, §2

[5] = tested on: boll weevil (Anthonomus grandis); test: Test 3—Control of Boll Weevil (insect diet with eggs); assay type: in vivo; conditions: 5 days
Description: Test 3—Control of Boll Weevil
For evaluating control of boll weevil (Anthonomus grandis) the test unit consisted of 24-well-microtiter plates containing an insect diet and 20-30 A. grandis eggs.
The compounds or mixtures were formulated using a solution containing 75% water and 25% DMSO. Different concentrations of formulated compounds or mixtures were sprayed onto the insect diet at 20 μl, using a custom built micro atomizer, at two replications.
as §1
After application, microtiter plates were incubated at 23±1° C., 50±5% RH for 5 days. Egg and larval mortality was then visually assessed.

Botrytis cinerea = test: Test 6—Activity Against the Grey Mold Botrytis cinerea in the Microtiterplate Test; assay type: cell-based; conditions: 7 days after inoculation
Excerpt: as §3, §4
Test 6—Activity Against the Grey Mold Botrytis cinerea in the Microtiterplate Test
as §5, with “Botrci cinerea in” for “SepCoria triticiin”

[6] = 0 + 10 ppm (second compound alone)
[7] = 0 + 2 ppm (second compound alone)
[8] = 2 + 0 ppm (first compound alone)
[9] = 50 + 0 ppm (first compound alone)
[10] = 10 + 0 ppm (first compound alone)
[11] = 0 + 20 ppm (second compound alone)
[12] = 0 + 0.4 ppm (second compound alone)
[13] = 0 + 0.08 ppm (second compound alone)

CN1COCN(Cc2cnc(Cl)s2)/C1=N\[N+](=O)[O-] [Thiamethoxam, thiamethoxam]
Average Control % [1, 6]: 25% | Average Control % [2, 7]: 25%

CC(C)(C)C(O)(CCc1ccc(Cl)cc1)Cn1cncn1 (stereo not shown) [Tebuconazole, 1-(4-chlorophenyl)-4,4-dimethyl-3-[1,2,4]triazol-1-ylmethylpentan-3-ol]
Observed efficacy % (Septoria tritici; 0.25 ppm): 57%

N#Cc1nn(-c2c(Cl)cc(C(F)(F)F)cc2Cl)c(N)c1[S+]([O-])C(F)(F)F (stereo not shown) [Fipronil, fipronil]
Average Control % [3, 7]: 0% | Average Control % [2, 7]: 0%

CN(C(=O)c1cnn(C)c1C(F)F)c1cccnc1 [I-17]
Observed efficacy % (Pyricularia oryzae; 63 ppm): 0% | Average Control % [2, 8]: 0% | Observed efficacy % (Alternaria solani; 63 ppm): 4%

Cc1c(C(=O)N(C)c2ccnnc2)cnn1CC(F)(F)F [I-76]
Observed efficacy % (Septoria tritici; 1 ppm): 11% | Average Control % ([3]; 0.4 + 0 ppm (first compound alone)): 0% | Average Control % [3, 8]: 0% | Average Control % [3, 9]: 50% | Average Control % [1, 10]: 0% | Average Control % [2, 8]: 0% | Average Control % [2, 10]: 0% | Average Control % [2, 9]: 0% | Average Control % [4, 9]: 0%

N#CCNC(=O)c1cnccc1C(F)(F)F [Flonicamid, flonicamid]
Average Control % ([3]; 0 + 4 ppm (second compound alone)): 0% | Average Control % [2, 11]: 25% | Average Control % [5, 11]: 0%

CC1=NNC(=O)N(/N=C/c2cccnc2)C1 [Pymetrozine, pymetrozine]
Average Control % ([4]; 0 + 400 ppm (second compound alone)): 50%

COC(=O)N(OC)c1ccccc1COc1ccn(-c2ccc(Cl)cc2)n1 [Pyraclostrobin, methyl N-{2-[1-(4-chlorophenyl)-1H-pyrazol-3-yloxymethyl]phenyl}(N-methoxy)carbamate]
Observed efficacy % (Septoria tritici; 0.004 ppm): 46%

OC(Cc1ccccc1Cl)(Cn1nc[nH]c1=S)C1(Cl)CC1 (stereo not shown) [Prothioconazole, 2-[2-(1-chlorocyclopropyl)-3-(2-chlorophenyl)-2-hydroxypropyl]-2,4-dihydro[1,2,4]triazole-3-thione]
Observed efficacy % (Pyricularia oryzae; 0.25 ppm): 15% | Observed efficacy % (Alternaria solani; 0.25 ppm): 22% | Observed efficacy % (Botrytis cinerea; 0.25 ppm): 45%

CCOC(=O)OC1=C(c2cc(C)ccc2C)C(=O)N[C@]12CC[C@@H](OC)CC2 [Spirotetramat, spirotetramat]
Average Control % ([3]; 0 + 3.2 ppm (second compound alone)): 0% | Average Control % ([3]; 0 + 16 ppm (second compound alone)): 0%

C[C@]1(COC(=O)CC2CC2)[C@@H]2C[C@H](OC(=O)CC3CC3)[C@@]3(C)Oc4cc(-c5cccnc5)oc(=O)c4[C@H](O)[C@@H]3[C@@]2(C)CC[C@@H]1OC(=O)CC1CC1 [A27.2]
Average Control % ([3]; 0 + 0.0008 ppm (second compound alone)): 0% | Average Control % ([3]; 0 + 0.004 ppm (second compound alone)): 50%

CON=C(C(=O)OC)c1ccccc1CON=C(C)c1cccc(C(F)(F)F)c1 [Trifloxystrobin, methyl (E)-methoxyimino-{(E)-α-[1-(α,α,α-trifluoro-mtolyl)ethylideneaminooxy]-o-tolyl}acetate]
Observed efficacy % (Septoria tritici; 0.016 ppm): 71%

CC1(C)C(C=C(Cl)Cl)C1C(=O)OC(C#N)c1cccc(Oc2ccccc2)c1 (stereo not drawn) [α-cypermethrin, alpha-cypermethrin]
Average Control % [2, 12]: 25% | Average Control % [2, 7]: 0% | Average Control % [5, 12]: 25%

abamectin
Average Control % [2, 13]: 25%

CC(c1ccc(C(F)(F)F)nc1)S(C)(=O)=NC#N (stereo not shown) [Sulfoxaflor, sulfoxaflor]
Average Control % ([3]; 0 + 0.0064 ppm (second compound alone)): 0%

O=[N+]([O-])NC1=NCCN1Cc1ccc(Cl)nc1 [Imidacloprid, imidacloprid]
Average Control % [1, 6]: 0% | Average Control % ([2]; 0 + 0.016 ppm (second compound alone)): 0% | Average Control % [2, 13]: 0% | Average Control % [2, 12]: 25%

Cc1c(C(=O)N(C)c2ccnnc2)cnn1C(C)C [I-52]
Observed efficacy % (Septoria tritici; 4 ppm): 18% | Observed efficacy % (Septoria tritici; 16 ppm): 18% | Average Control % ([3]; 0.08 + 0 ppm (first compound alone)): 0% | Average Control % [3, 8]: 25% and 50% | Average Control % [1, 9]: 0% | Observed efficacy % (Pyricularia oryzae; 63 ppm): 0% | Average Control % [2, 10]: 50% and 25% | Observed efficacy % (Alternaria solani; 63 ppm): 0% | Average Control % [5, 8]: 0% | Average Control % [5, 10]: 0% | Average Control % [5, 9]: 0% | Observed efficacy % (Botrytis cinerea; 63 ppm): 4%

CNC(=O)c1cc(Cl)cc(C)c1NC(=O)c1cc(Br)nn1-c1ncccc1Cl [Chloranthraniliprole, chloranthraniliprole]
Average Control % [3, 12]: 0% | Average Control % [1, 6]: 0% | Average Control % [2, 6]: 25% | Average Control % [5, 12]: 25%
